Assay results reported in publication PMC7413254 (Nature Communications, 2020).
Where two headings read alike, the source gives them in different places.

Tests used:
[1] = target: T1, PfCRT^Dd2 in C4^Dd2 parasites (Plasmodium falciparum, UniProt Q8IBZ9, A220S/I356T/K76T/M74I/N326S/N75E/Q271E/R371I); experiment: P. falciparum H+-efflux assay (rate of DV alkalinisation after concanamycin A); format: cell-based; conditions: C4Dd2; test solute 10 μM
T1 construct: PfCRT also functions as a peptide transporter within its native environment of the DV membrane; expressed in transfected cells; host or cells: P. falciparum pfcrt transfectant line C4^Dd2 (saponin-isolated trophozoites)
T1 sequence (Q8IBZ9 1-424 M74I/N75E/K76T/A220S/Q271E/N326S/I356T/R371I): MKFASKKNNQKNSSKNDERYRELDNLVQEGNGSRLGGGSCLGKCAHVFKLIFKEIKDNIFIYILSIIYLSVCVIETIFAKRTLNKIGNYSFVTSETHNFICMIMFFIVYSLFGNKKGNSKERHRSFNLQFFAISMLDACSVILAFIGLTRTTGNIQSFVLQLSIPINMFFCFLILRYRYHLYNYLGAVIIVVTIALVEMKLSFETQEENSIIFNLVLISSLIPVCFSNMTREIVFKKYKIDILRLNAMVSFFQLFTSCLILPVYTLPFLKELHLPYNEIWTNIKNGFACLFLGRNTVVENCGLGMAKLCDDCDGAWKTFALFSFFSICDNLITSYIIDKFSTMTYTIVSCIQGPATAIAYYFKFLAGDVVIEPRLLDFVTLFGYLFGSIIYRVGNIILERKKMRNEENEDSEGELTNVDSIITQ

C2^GC03 parasites = experiment: P. falciparum proliferation assay; format: cell-based; conditions: Plasmodium falciparum
Procedure: (§1) Parasite proliferation was measured in 96-well plates using a fluorescent DNA-intercalating dye[68],[69]. Synchronous ring-stage parasite cultures (~1% haematocrit and 1% parasitaemia) were incubated with different concentrations of the test compound for 72 h at 37 °C and under reduced O2 conditions. The assay was terminated by freezing and thawing the samples, after which 100 μL of SYBR Safe DNA Gel Stain (Molecular Probes; 0.2 μL/mL) in a lysis buffer (20 mM Tris-HCl, 5 mM EDTA, 0.008% (w/v) saponin and 0.08% (v/v) Triton X-100; pH 7.5) was added to each well. The fluorescence from each well was measured using a Tecan Infinite M1000 PRO microplate reader (excitation wavelength 490 nm; emission wavelength 520 nm). The fluorescence values for the wells containing the highest concentration of the compound were averaged and this value was then subtracted from each of the well values obtained for that 96-well plate. The level of parasite proliferation in the presence of each compound concentration was expressed as a percentage of the proliferation measured in the absence of the compound. The IC50s were determined in SigmaPlot Windows Version 11.0 by a least-squares fit of the equation y = a/[1 + ([compound]/IC50)^c] to the data, where y is the percent parasite proliferation, a is the maximum change in the percent parasite proliferation, and c is a fitted constant. In all cases, five independent experiments were performed (on different days), and within each experiment measurements were averaged from three replicates.

3D7 strain = experiment: P. falciparum proliferation assay; format: cell-based, Plasmodium falciparum; conditions: Plasmodium falciparum, 3D7, 72 h
Procedure: as §1

7G8 strain = experiment: P. falciparum proliferation assay; format: cell-based, Plasmodium falciparum; conditions: Plasmodium falciparum, 72 h, SEM
Procedure: as §1

C4^Dd2 parasites = experiment: P. falciparum proliferation assay; format: cell-based, Plasmodium falciparum; conditions: Plasmodium falciparum, DD2, 72 h, read-out: IC50 (nM), parasite proliferation, + 1 μM VP; SEM
Procedure: as §1

C6^7G8 parasites = experiment: P. falciparum proliferation assay; format: cell-based, Plasmodium falciparum; conditions: Plasmodium falciparum
Procedure: as §1

Dd2 strain = experiment: P. falciparum proliferation assay; format: cell-based, Plasmodium falciparum; conditions: Plasmodium falciparum, DD2, 72 h, read-out: IC50 (nM), parasite proliferation, + 1 μM VP; SEM
Procedure: as §1

PfNT1 = target: T2, PfNT1 (Plasmodium falciparum, UniProt Q8IDM6); experiment: [3H]CQ uptake into Xenopus oocytes (ion and membrane-potential dependence, Supplementary Fig. 2); format: cell-based
T2 construct: expressed in transfected cells; host or cells: Xenopus laevis oocytes (stage V-VI), cRNA-injected

[2] = system: C4^Dd2 versus C2^GC03 infected erythrocytes; experiment: Peptidomic analysis, peptide levels in C4^Dd2 relative to C2^GC03 parasites (LC-MS); format: cell-based, Plasmodium falciparum
[3] = 72 h, read-out: IC50 (nM), parasite proliferation, + 1 μM VP, SEM
[4] = Peptides tested before peptidomic data was obtained

T2 sequence (Q8IDM6 whole entry): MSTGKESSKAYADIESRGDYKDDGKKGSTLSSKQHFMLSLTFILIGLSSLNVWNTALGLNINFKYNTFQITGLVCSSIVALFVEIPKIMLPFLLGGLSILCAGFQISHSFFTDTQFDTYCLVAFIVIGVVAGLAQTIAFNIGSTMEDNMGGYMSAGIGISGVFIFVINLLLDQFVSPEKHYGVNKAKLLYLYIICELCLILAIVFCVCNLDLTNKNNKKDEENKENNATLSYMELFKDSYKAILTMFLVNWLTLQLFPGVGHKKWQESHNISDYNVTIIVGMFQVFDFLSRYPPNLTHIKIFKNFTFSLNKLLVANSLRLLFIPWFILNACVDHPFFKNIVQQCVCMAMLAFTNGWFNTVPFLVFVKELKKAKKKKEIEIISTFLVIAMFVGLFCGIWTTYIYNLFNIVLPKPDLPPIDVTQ

## CCN(CC)CCCC(C)Nc1ccnc2cc(Cl)ccc12 (centres unmarked) [CQ, chloroquine, reference compound]
[1]
  Effect on rate of DV alkalinisation / H+ leak (in words): increase
C2^GC03 parasites; [3]
  IC50: 26 ± 1.3 nM
C2^GC03 parasites; C2GC03, 72 h, 37 °C, SYBR Safe, mean ± SEM, n = 5, read-out: IC50 (nM), parasite proliferation, Control
  IC50: 27 ± 1.6 nM
3D7 strain; 37 °C, SYBR Safe, mean ± SEM, n = 5, read-out: IC50 (nM), parasite proliferation, Control
  IC50: 25 ± 1.1 nM
3D7 strain; read-out: IC50 (nM), parasite proliferation, + 1 μM VP, SEM
  IC50: 24 ± 0.9 nM
7G8 strain; read-out: IC50 (nM), parasite proliferation, + 1 μM VP
  IC50: 28 ± 1.6 nM
7G8 strain; read-out: IC50 (nM), parasite proliferation, Control
  IC50: 94 ± 4.4 nM
C4^Dd2 parasites
  IC50: 26 ± 0.1 nM
C6^7G8 parasites; [3]
  IC50: 25 ± 0.2 nM
C6^7G8 parasites; C67G8, 72 h, 37 °C, SYBR Safe, mean ± SEM, n = 5, read-out: IC50 (nM), parasite proliferation, Control
  IC50: 87 ± 2.1 nM
Dd2 strain
  IC50: 25 ± 1 nM
PfNT1; 0 mM Ca2+, Experiment 1
  [3H]CQ transport, PfNT1: 3.03 % PfCRTDd2 control
PfNT1; 0 mM Ca2+, Experiment 2
  [3H]CQ transport, PfNT1: 3.55 % PfCRTDd2 control
PfNT1; 0 mM Ca2+, Experiment 3
  [3H]CQ transport, PfNT1: 3.65 % PfCRTDd2 control
PfNT1; 0 mM Ca2+, Experiment 4
  [3H]CQ transport, PfNT1: 3.28 % PfCRTDd2 control
PfNT1; 0 mM Cl-, Experiment 1
  [3H]CQ transport, PfNT1: 3.68 % PfCRTDd2 control
PfNT1; 0 mM Cl-, Experiment 2
  [3H]CQ transport, PfNT1: 3.72 % PfCRTDd2 control
PfNT1; 0 mM Cl-, Experiment 3
  [3H]CQ transport, PfNT1: 4.16 % PfCRTDd2 control
PfNT1; 0 mM Cl-, Experiment 4
  [3H]CQ transport, PfNT1: 3.75 % PfCRTDd2 control
PfNT1; 0 mM Na+, Experiment 1
  [3H]CQ transport, PfNT1: 3.67 % PfCRTDd2 control
PfNT1; 0 mM Na+, Experiment 2
  [3H]CQ transport, PfNT1: 3.32 % PfCRTDd2 control
PfNT1; 0 mM Na+, Experiment 3
  [3H]CQ transport, PfNT1: 3.62 % PfCRTDd2 control
PfNT1; 0 mM Na+, Experiment 4
  [3H]CQ transport, PfNT1: 3.15 % PfCRTDd2 control
PfNT1; 1 mM Ca2+, Experiment 1
  [3H]CQ transport, PfNT1: 4.25 % PfCRTDd2 control
PfNT1; 1 mM Ca2+, Experiment 2
  [3H]CQ transport, PfNT1: 3.56 % PfCRTDd2 control
PfNT1; 1 mM Ca2+, Experiment 3
  [3H]CQ transport, PfNT1: 3.56 % PfCRTDd2 control
PfNT1; 1 mM Ca2+, Experiment 4
  [3H]CQ transport, PfNT1: 4.24 % PfCRTDd2 control
PfNT1; 3 mM Ca2+, Experiment 1
  [3H]CQ transport, PfNT1: 3.29 % PfCRTDd2 control
PfNT1; 3 mM Ca2+, Experiment 2
  [3H]CQ transport, PfNT1: 3.28 % PfCRTDd2 control
PfNT1; 3 mM Ca2+, Experiment 3
  [3H]CQ transport, PfNT1: 3.36 % PfCRTDd2 control
PfNT1; 3 mM Ca2+, Experiment 4
  [3H]CQ transport, PfNT1: 3.62 % PfCRTDd2 control
PfNT1; 5 mM Ca2+, Experiment 1
  [3H]CQ transport, PfNT1: 3.95 % PfCRTDd2 control
PfNT1; 5 mM Ca2+, Experiment 2
  [3H]CQ transport, PfNT1: 3.75 % PfCRTDd2 control
PfNT1; 5 mM Ca2+, Experiment 3
  [3H]CQ transport, PfNT1: 3.96 % PfCRTDd2 control
PfNT1; 5 mM Ca2+, Experiment 4
  [3H]CQ transport, PfNT1: 3.37 % PfCRTDd2 control

## DPVN [DN-4]
[2]; Peptides tested after peptidomic data was obtained
  Assignment as substrate or not a substrate based on accumulation ratios from peptidomic data: substrate

## PENF [PEF-4]
[2]; [4]
  Assignment as substrate or not a substrate based on accumulation ratios from peptidomic data: substrate

## PHFD [PD-4]
[2]; [4]
  Assignment as substrate or not a substrate based on accumulation ratios from peptidomic data: substrate
